Test results published in US9061984B2 (University of Louisville Research Foundation, Inc., priority 2008, dated 2015).
≈ marks a conversion by molar mass, not a printed value. Where two headings read alike, the source gives them in different places.

Key:
[1] = system: axenic amastigotes of L. amazonensis (strain MHOM/BR/76/LTB-012); conditions: Table 8b
[2] = system: L. braziliensis PER006; assay: Activity against macrophages infected with Leishmania amastigotes; conditions: Leishmania braziliensis, Macrophage, read-out: IC50 L. braziliensis PER006
[3] = system: VERO cells; assay: Cell growth inhibition bioassay (sulforhodamine B); format: cell-based, African Green Monkey; conditions: Chlorocebus sabaeus, Vero; 48 h, SRB; read-out: GI50 in indicated cell line: VERO
How it was run: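 Cytotoxicity is read by sulforhodamine B colorimetry following the Skehan protocol; values are growth inhibition relative to solvent-only wells.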

[4] = system: 3T3 cells; assay: Cell growth inhibition bioassay (sulforhodamine B); format: cell-based, mouse; conditions: Mus musculus, NIH3T3; 48 h, SRB; read-out: GI50 in indicated cell line: 3T3
How it was run: (§1)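 Cells were exposed to compound alongside matched solvent controls, then stained with sulforhodamine B. Percent growth inhibition was calculated from dye absorbance against the control.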

[5] = system: L. peruviana LCA08; assay: Activity against macrophages infected with Leishmania amastigotes; conditions: Leishmania peruviana, Macrophage, read-out: IC50 L. peruviana LCA08
Protocol: A cloned line of Leishmania amazonensis(strain MHOM/BR/76/LTB-012) was used in all experiments. Axenically grown amastigote forms of L. amazonensis were maintained by weekly subpassages in MAA/20 medium (Sereno and Lemesre, Antimicrobial Agents and Chemotherapy 41, 972-976 (1997)) at 32±1° C. in 25 cm^2 tissue culture flasks. L. peruviana (strain MHOM/PE/LCA08) and L. braziliensis (strainMHOM/PE/PER006) were maintained in the promastigote stage in a biphasic medium (blood agar with 0.89% NaCl, pH 7.4) at 24° C., with sub-passage every 3 to 4 days. Promastigotes (5×10^6 parasites) were then transferred to 25 cm2 tissue culture flasks containing 5 ml of M199 medium supplemented with 10% foetal bovine serum (FBS), pH 7.4. After 4 days, exponential phase promastigotes were centrifuged for 10 minutes at 1500 g and 4° C. The supernatant was discarded and replaced by fresh M199 medium supplemented with 20% FBS, pH 5.5. Axenic amastigotes transformation was then induced by increasing the temperature to 34° C. and incubating for 96 h (Teixeira et al., Parasitology Research 88, 963-968 (2002)).
Extracted cells were immediately deposited on sterile 4×4 mm cover glasses and placed in each well of a 96-well plate. Plates were incubated for 24 h at 37° C., 5% CO2 to allow cell adhesion (Castillo et al, Journal of Ethnopharmacology 112, 410-414 (2007)). Pre-warmed complete M199 medium was used twice to remove non-adherent cells. A neutral red method (Fautz et al., Mutation Research 253, 173-179 (1991)) was employed to determine cell concentration. Approximately 7×10^4 viable cells were deposited in each well for adhesion.
Infection of macrophages by amastigotes was determined as follows. […] Twelve hours after infection, a solution of the compounds to be tested was added to the cultures at various concentrations and maintained at 37° C. in 5% CO2 for a further forty-eight hours more. The plates were fixed with methanol and stained with 10% Giemsa stain. The percentage of infected macrophages was determined microscopically at 100 times magnification. The number of intracellular amastigotes was determined in 300 cells. Following Delorenzi et al. Antimicrobial Agents and Chemotherapy, 45, 1349-1354 (2001)) the percentage of infection rate (% IR) of each culture was calculated as follows: % IR=100−(infection rate of the treated culture/infection rate of the untreated culture)×100.
All experiments were performed in triplicate. ANOVA was used to test for statistical significance of differences (Epi-Info, Statview student program). The total parasite burden was calculated as a mean number of amastigotes per cells multiplied by the number of infected macrophages.

[6] = Cytotoxicity on VERO cells (MTT), anti-T. cruzi study; conditions: African green monkey, VERO cells, Cytotoxicity VERO Lab B, Lab B
[7] = system: axenic amastigotes of L. amazonensis (strain MHOM/BR/76/LTB-012); assay: microbe, parasite or virus in culture; conditions: Leishmania amazonensis, read-out: L. amazonensis IC50
[8] = system: M. tuberculosis H37Rv; assay: Conventional aerobic (MABA) culture assay, luminescence MIC; format: cell-based, Mycobacterium tuberculosis; conditions: for MIC: Mycobacterium tuberculosis, 168 h, aerobic, 7 days, H37Rv; for Selectivity Index H37Rv: VERO vs MABA MIC
[9] = Toxicity to peritoneal macrophages (Trypan Blue count); format: cell-based, BALB/C mouse; conditions: BALB/C, mouse, Cytotoxicity Macrophages IC50
[10] = system: K562 cells; assay: Cell growth inhibition bioassay (sulforhodamine B); format: cell-based, human; conditions: Homo sapiens, K562; 48 h, SRB; read-out: GI50 in indicated cell line: K562
How it was run: as §1

[11] = system: HT-29 cells; assay: Cell growth inhibition bioassay (sulforhodamine B); format: cell-based, human; conditions: Homo sapiens, HT-29; 48 h, SRB; read-out: GI50 in indicated cell line: HT-29
How it was run: as §1

[12] = system: H460 cells; assay: Cell growth inhibition bioassay (sulforhodamine B); format: cell-based, human; conditions: Homo sapiens, NCI-H460; 48 h, SRB; read-out: GI50 in indicated cell line: H460
How it was run: (§2)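 SRB colorimetric read-out; % growth inhibition vs solvent control. Human lines: MCF-7 (breast adenocarcinoma), DU145 (prostate carcinoma), PC3 (prostate adenocarcinoma), H460 (large cell lung cancer).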

[13] = system: DU145 cells; assay: Cell growth inhibition bioassay (sulforhodamine B); format: cell-based, human; conditions: Homo sapiens, DU-145; 48 h, SRB; read-out: GI50 in indicated cell line: DU145
How it was run: as §2

[14] = system: M-14 cells; assay: Cell growth inhibition bioassay (sulforhodamine B); format: cell-based, human; conditions: Homo sapiens, M14; 48 h, SRB; read-out: GI50 in indicated cell line: M-14
How it was run: as §1

[15] = system: MCF-7 cells; assay: Cell growth inhibition bioassay (sulforhodamine B); format: cell-based, human; conditions: Homo sapiens, MCF7; 48 h, SRB; read-out: GI50 in indicated cell line: MCF-7
How it was run: as §2

[16] = system: L. amazonensis; conditions: intralesional, compounds 5 mg/kg/day, Glucantime 33 mg Sb(v)/kg/day; for Mean lesion wt (mg) (±SD): BALB/c mice n=10; for % Variation of lesion wt / % reduction of parasite burden in the lesion: vs control
[17] = system: Trypanosoma cruzi (Tulahuen C4); assay: In vitro anti-T. cruzi activity (β-galactosidase CPRG colorimetric assay in VERO monolayer); format: cell-based; conditions: for Selectivity Index Lab B: IC50, VERO/IC50, T. cruzi; for IC50: Trypanosoma cruzi, TULAHUEN, Vero
[18] = Cytotoxicity VERO cell (Table 6); conditions: African green monkey, VERO cells
[19] = Lab A, read-out: T. cruzi IC50 Lab A
[20] = Lab B, read-out: T. cruzi IC50 Lab B

Structure (SMILES) | Selectivity Index [1] | GI50 [3] [µg/mL] | GI50 [4] [µg/mL] | IC50 [6] [µg/mL] | IC50 [7] [µM] | MIC [8] [µg/mL] | IC50 at 48 h [9] [µM] | GI50 [10] [µg/mL] | GI50 [11] [µg/mL] | GI50 [12] [µg/mL] | GI50 [13] [µg/mL] | GI50 [14] [µg/mL] | GI50 [15] [µg/mL] | Selectivity Index Lab B ([17]; Lab B) | IC50 [17, 19] [µg/mL] | IC50 [17, 20] [µg/mL] | IC50 [18] [µg/mL] | Selectivity Index H37Rv [8] | further results
CCc1ccc(/C=N\Nc2ncnc3sc4c(c23)CCCC4)cc1 [II-06] | 9.6 | 6.6 (≈ 19.6 µM) | 12.1 (≈ 36 µM) | 4 (≈ 11.9 µM) | 5.3 | > 100 | 50.9 | 3.7 (≈ 11 µM) | 10.8 (≈ 32.1 µM) | 9.5 (≈ 28.2 µM) | 19.8 (≈ 58.8 µM) | 64 (≈ 190 µM) | 6.2 (≈ 18.4 µM) | – | – | – | – | – | IC50 [2]: 3.5 µg/mL (≈ 10.4 µM); IC50 [5]: 3.2 µg/mL (≈ 9.51 µM); Mean lesion size (mm) ([16]; after 4 weeks treatment): 3.0 mm; Mean parasite quantification (per 10^6) in lesion per mg (±SD) ([16]; after 4 weeks treatment): 1.19 (±0.27) amastigotes (×10^6)/mg; Mean lesion wt (mg) (±SD) ([16]; after 4 weeks treatment): 70.9 (±9.9) mg; % Variation of lesion wt ([16]; after 4 weeks treatment): −17%; % reduction of parasite burden in the lesion ([16]; after 4 weeks treatment): 30%; Mean lesion size (mm) ([16]; after 7 weeks treatment): 4.7 mm; Mean parasite quantification (per 10^6) in lesion per mg (±SD) ([16]; after 7 weeks treatment): 1.46 (±0.30) amastigotes (×10^6)/mg; Mean lesion wt (mg) (±SD) ([16]; after 7 weeks treatment): 78.4 (±1.6) mg; % Variation of lesion wt ([16]; after 7 weeks treatment): 12%; % reduction of parasite burden in the lesion ([16]; after 7 weeks treatment): 2%
Oc1ccc(/C=N\Nc2ncnc3sc4c(c23)CCCC4)cc1 [II-09] | 4.3 | 6.8 (≈ 21 µM) | 2.1 (≈ 6.47 µM) | 4 (≈ 12.3 µM) | 13.5 | 23.4 (≈ 72.1 µM) | 57.8 | 5.1 (≈ 15.7 µM) | 6.3 (≈ 19.4 µM) | 4.8 (≈ 14.8 µM) | 6.8 (≈ 21 µM) | 5.6 (≈ 17.3 µM) | 5.5 (≈ 17 µM) | 1.1 | 2.6 (≈ 8.01 µM) | 3.7 (≈ 11.4 µM) | 14.6 (≈ 45 µM) | 0.6 | –
COc1cccc(/C=N\Nc2ncnc3sc4c(c23)CCCC4)c1 [II-11] | 0.5 | 6.2 (≈ 18.3 µM) | 6 (≈ 17.7 µM) | 5 (≈ 14.8 µM) | 12.2 | 40.4 (≈ 119 µM) | 5.5 | 5.3 (≈ 15.7 µM) | 2.5 (≈ 7.39 µM) | 5.5 (≈ 16.3 µM) | 6 (≈ 17.7 µM) | 48.4 (≈ 143 µM) | 5 (≈ 14.8 µM) | 0.9 | 1.5 (≈ 4.43 µM) | 5.7 (≈ 16.8 µM) | 22.7 (≈ 67.1 µM) | 0.6 | –
C(=N/Nc1ncnc2sc3c(c12)CCCC3)/c1ccc[nH]1 [II-19] | 1.0 | 0.6 (≈ 2.02 µM) | 0.7 (≈ 2.35 µM) | 1 (≈ 3.36 µM) | 3 | 6.2 (≈ 20.8 µM) | 2.9 | 0.6 (≈ 2.02 µM) | 1.1 (≈ 3.7 µM) | 0.5 (≈ 1.68 µM) | 1.4 (≈ 4.71 µM) | 0.7 (≈ 2.35 µM) | 0.1 (≈ 0.336 µM) | 0.1 | 0.6 (≈ 2.02 µM) | 6.8 (≈ 22.9 µM) | 4 (≈ 13.5 µM) | 0.7 | –
Clc1ccccc1/C=N\Nc1ncnc2sc3c(c12)CCCC3 [II-29] | 5.0 | 9.9 (≈ 28.9 µM) | 30.2 (≈ 88.1 µM) | 5 (≈ 14.6 µM) | 0.8 | 42.6 (≈ 124 µM) | 3.8 | 6.8 (≈ 19.8 µM) | 19.4 (≈ 56.6 µM) | 21.6 (≈ 63 µM) | 26.7 (≈ 77.9 µM) | > 62.5 | 7.5 (≈ 21.9 µM) | 0.7 | – | 7.3 (≈ 21.3 µM) | 29.3 (≈ 85.5 µM) | 0.7 | –
Brc1ccc(/C=N\Nc2ncnc3sc4c(c23)CCCC4)cc1 [II-30] | 8.8 | 2.8 (≈ 7.23 µM) | 6.8 (≈ 17.6 µM) | 6 (≈ 15.5 µM) | 0.3 | > 100 | 3 | 2.2 (≈ 5.68 µM) | 4.8 (≈ 12.4 µM) | 4.1 (≈ 10.6 µM) | 5.6 (≈ 14.5 µM) | 13 (≈ 33.6 µM) | 2.3 (≈ 5.94 µM) | 0.8 | 1.1 (≈ 2.84 µM) | 7.9 (≈ 20.4 µM) | – | – | IC50 [2]: > 0.5 µg/mL; IC50 [5]: > 0.5 µg/mL
Brc1ccccc1/C=N\Nc1ncnc2sc3c(c12)CCCC3 [II-31] | 5.8 | 2 (≈ 5.16 µM) | 4.3 (≈ 11.1 µM) | 3 (≈ 7.75 µM) | 0.5 | 9.4 (≈ 24.3 µM) | 2.9 | 1.2 (≈ 3.1 µM) | 3.1 (≈ 8 µM) | 3 (≈ 7.75 µM) | 2.8 (≈ 7.23 µM) | 6 (≈ 15.5 µM) | 1.7 (≈ 4.39 µM) | 0.8 | 0.8 (≈ 2.07 µM) | 3.6 (≈ 9.29 µM) | 7.7 (≈ 19.9 µM) | 0.8 | –
